# Read-outs that look alike come from different tables or passages of the source.
# Columns and labels:
# Type in all cases: cell-based
# [1] = system: E. coli; assay: Broth dilution MIC determination (CLSI) against E. coli strains; settings: for MIC: Escherichia coli
# Outline: (§1)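 MICs were determined by CLSI standard broth dilution against multiple strains, including multidrug-resistant isolates, with emphasis on macrolide resistance mechanisms. Azithromycin and solithromycin served as control compounds.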
# [2] = system: P. aeruginosa; assay: Broth dilution MIC determination (CLSI) against P. aeruginosa strains; settings: for MIC: Pseudomonas aeruginosa
# Outline: as §1
# [3] = system: S. pyogenes; assay: Broth dilution MIC determination (CLSI) against S. pyogenes strains; settings: for MIC: Streptococcus pyogenes
# Outline: as §1
# [4] = system: A. baumannii; assay: Broth dilution MIC determination (CLSI) against A. baumannii strains; settings: for MIC: Acinetobacter baumannii
# Outline: as §1
# [5] = system: E. faecalis; assay: Broth dilution MIC determination (CLSI) against E. faecalis strains; settings: for MIC: Enterococcus faecalis
# Outline: as §1
# [6] = system: H. influenzae; assay: Broth dilution MIC determination (CLSI) against H. influenzae strains; settings: for MIC: Haemophilus influenzae
# From the text: Minimum inhibitory concentrations (MICs) for macrolides described herein have been determined for unique strains of S. aureus, S. pneumoniae, S. pyogenes, E. faecalis, E. coli, A. baumannii, K. pneumoniae, P. aeruginosa, and H. influenzae, including several multidrug-resistant strains, with a special focus on macrolide resistant mechanisms. Azithromycin and solithromycin were included as control compounds. CLSI standard procedures for broth dilution MIC determination were used. Data for exemplary compounds described herein is shown in Tables M1-M7 and in Tables N1-N4.
# [7] = system: S. pneumoniae; assay: Broth dilution MIC determination (CLSI) against S. pneumoniae strains; settings: for MIC: Streptococcus pneumoniae
# Outline: as §1
# [8] = system: K. pneumoniae; assay: Broth dilution MIC determination (CLSI) against K. pneumoniae strains; settings: for MIC: Klebsiella pneumoniae
# Outline: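 Azithromycin and solithromycin served as controls; MICs were obtained by standard CLSI broth dilution on a strain panel including multidrug-resistant and macrolide-resistant isolates.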
# [9] = system: S. aureus; assay: Broth dilution MIC determination (CLSI) against S. aureus strains; settings: for MIC: Staphylococcus aureus
# Outline: as §1
# [10] = ATCC25922, ATCC25922, read-out: MIC E. coli ATCC25922
# [11] = read-out: MIC E. coli CTX-M-14, CTX-M-14
# [12] = read-out: MIC E. coli NDM-1, NDM-1
# [13] = read-out: MIC E. coli TEM-1, TEM-1
# [14] = ATCC27853, read-out: MIC P. aeruginosa ATCC27853
# [15] = read-out: MIC P. aeruginosa HPA101-1477
# [16] = ATCC19615, ATCC19615, read-out: MIC S. pyogenes ATCC19615
# [17] = macrolide-resistant, read-out: MIC S. pyogenes macrolide-resistant
# [18] = ATCC19606, ATCC19606, read-out: MIC A. baumannii ATCC19606
# [19] = IMP-4, read-out: MIC A. baumannii IMP-4
# [20] = chromosomal class C, read-out: MIC A. baumannii chromosomal class C
# [21] = imipenem-resistant, read-out: MIC A. baumannii imipenem-resistant
# [22] = ATCC29212, ATCC29212, read-out: MIC E. faecalis ATCC29212
# [23] = Vancomycin-resistant, read-out: MIC E. faecalis Vancomycin-resistant
# [24] = ATCC49247, ATCC49247, read-out: MIC H. influenzae ATCC49247
# [25] = erythro > 4, azithro 1, read-out: MIC H. influenzae erythro > 4, azithro 1
# [26] = ATCC49619, ATCC49619, read-out: MIC S. pneumoniae ATCC49619
# [27] = erm B + mef A genotype, read-out: MIC S. pneumoniae erm B + mef A genotype
# [28] = erm B + tet(M, O) genotype, read-out: MIC S. pneumoniae erm B + tet(M, O) genotype
# [29] = read-out: MIC S. pneumoniae mef A genotype, mef A genotype
# [30] = read-out: MIC S. pneumoniae mef A genotype, mef A genotype, first of two such columns (c3)
# [31] = ATCC10031, ATCC10031, read-out: MIC K. pneumoniae ATCC10031
# [32] = KPC-2, read-out: MIC K. pneumoniae KPC-2
# [33] = SHV-12, read-out: MIC K. pneumoniae SHV-12
# [34] = TEM-10, read-out: MIC K. pneumoniae TEM-10
# [35] = ATCC29213, ATCC29213, read-out: MIC S. aureus ATCC29213
# [36] = USA600, USA600, GISA, read-out: MIC S. aureus USA600, GISA
# [37] = read-out: MIC S. aureus erm A genotype
# [38] = MRSA / USA100, MRSA: USA100, read-out: MIC S. aureus MRSA: USA100
# [39] = MRSA / USA300, MRSA: USA300, read-out: MIC S. aureus MRSA: USA300
smiles,measurement,setting,value
"CC[C@H]1OC(=O)[C@H](C)[C@@H](O[C@H]2C[C@@](C)(OC)[C@@H](O)[C@H](C)O2)[C@H](C)[C@@H](O[C@@H]2O[C@H](C)C[C@H](N(C)C)[C@H]2O)[C@](C)(O)C[C@@H](C)CN(C)[C@H](C)[C@@H](O)[C@]1(C)O [Azithromycin, azithromycin, reference compound]",MIC,[1]; [10],4 µg/mL
same,MIC,[1]; [11],> 32 µg/mL
same,MIC,[1]; [12],> 32 µg/mL
same,MIC,[1]; [13],1 µg/mL
same,MIC,[2]; [14],> 32 µg/mL
same,MIC,[2]; [15],> 32 µg/mL
same,MIC,[3]; [16],< 0.0312 µg/mL
same,MIC,[3]; [17],2 µg/mL
same,MIC,[4]; [18],16 µg/mL
same,MIC,[4]; [19],> 32 µg/mL
same,MIC,[4]; [20],32 µg/mL
same,MIC,[4]; [21],8 µg/mL
same,MIC,[5]; [22],4 µg/mL
same,MIC,[5]; [23],> 32 µg/mL
same,MIC,[6]; [24],0.5 µg/mL
same,MIC,[6]; [25],0.125 µg/mL
same,MIC,[7]; [26],< 0.0312 µg/mL
same,MIC,[7]; [27],> 32 µg/mL
same,MIC,[7]; [28],< 0.0312 µg/mL
same,MIC,[7]; [29],4 µg/mL
same,MIC,[7]; [30],0.25 µg/mL
same,MIC,[8]; [31],4 µg/mL
same,MIC,[8]; [32],> 32 µg/mL
same,MIC,[8]; [33],16 µg/mL
same,MIC,[8]; [34],8 µg/mL
same,MIC,[9]; [35],1 µg/mL
same,MIC,"[9]; MRSA / USA100, read-out: MIC S. aureus MRSA: USA100",> 32 µg/mL
same,MIC,"[9]; MRSA / USA300, read-out: MIC S. aureus MRSA: USA300",32 µg/mL
same,MIC,[9]; [36],> 32 µg/mL
same,MIC,[9]; [37],> 32 µg/mL
CC[C@H]1OC(=O)[C@H](C)C(=O)[C@H](C)[C@@H](O[C@@H]2OC(CN)CC(N(C)C)C2O)[C@](C)(OC)C[C@@H](C)CN[C@H](C)[C@H]2N(CCCCn3cc(-c4cccc(N)c4)nn3)C(=O)O[C@]12C (some centres unmarked) [FSM-21700],MIC,[1]; [10],32 µg/mL
same,MIC,[1]; [11],> 32 µg/mL
same,MIC,[1]; [12],16 µg/mL
same,MIC,[1]; [13],8 µg/mL
same,MIC,[2]; [14],> 32 µg/mL
same,MIC,[2]; [15],> 32 µg/mL
same,MIC,[3]; [16],0.0625 µg/mL
same,MIC,[3]; [17],2 µg/mL
same,MIC,[4]; [18],> 32 µg/mL
same,MIC,[4]; [19],> 32 µg/mL
same,MIC,[4]; [20],> 32 µg/mL
same,MIC,[4]; [21],> 32 µg/mL
same,MIC,[5]; [22],8 µg/mL
same,MIC,[5]; [23],> 32 µg/mL
same,MIC,[6]; [24],32 µg/mL
same,MIC,[6]; [25],16 µg/mL
same,MIC,[7]; [26],≤ 0.0312 µg/mL
same,MIC,[7]; [27],16 µg/mL
same,MIC,[7]; [28],0.0625 µg/mL
same,MIC,[7]; [29],2 µg/mL
same,MIC,[7]; [30],0.5 µg/mL
same,MIC,[8]; [31],4 µg/mL
same,MIC,[8]; [32],> 32 µg/mL
same,MIC,[8]; [33],> 32 µg/mL
same,MIC,[8]; [34],32 µg/mL
same,MIC,[9]; [35],8 µg/mL
same,MIC,[9]; [38],> 32 µg/mL
same,MIC,[9]; [39],> 32 µg/mL
same,MIC,[9]; [36],> 32 µg/mL
same,MIC,[9]; [37],32 µg/mL
C=CCOC(=O)NCC1CC(N(C)C)C(O)[C@H](O[C@@H]2[C@@H](C)C(=O)[C@@H](C)C(=O)O[C@H](CC)[C@@]3(C)OC(=O)N(CCCCn4cc(-c5cccc(N)c5)nn4)[C@@H]3[C@@H](C)NC[C@H](C)C[C@@]2(C)OC)O1 (some centres unmarked) [FSM-21795],MIC,[1]; [10],16 µg/mL
same,MIC,[1]; [12],> 32 µg/mL
same,MIC,[2]; [14],32 µg/mL
same,MIC,[3]; [16],0.0625 µg/mL
same,MIC,[3]; [17],2 µg/mL
same,MIC,[4]; [18],32 µg/mL
same,MIC,[4]; [21],32 µg/mL
same,MIC,[5]; [22],1 µg/mL
same,MIC,[5]; [23],> 32 µg/mL
same,MIC,[6]; [24],4 µg/mL
same,MIC,[6]; [25],8 µg/mL
same,MIC,[7]; [26],0.25 µg/mL
same,MIC,[7]; [27],> 32 µg/mL
same,MIC,[7]; [28],0.0625 µg/mL
same,MIC,[7]; [29],16 µg/mL
same,MIC,[7]; [30],4 µg/mL
same,MIC,[8]; [31],8 µg/mL
same,MIC,[8]; [32],> 32 µg/mL
same,MIC,[9]; [35],16 µg/mL
same,MIC,[9]; [38],> 32 µg/mL
same,MIC,[9]; [39],> 32 µg/mL
same,MIC,[9]; [36],> 32 µg/mL
same,MIC,[9]; [37],> 32 µg/mL
CCC1OC(=O)C(C)C(=O)C(C)C(OC2OC(COC(=O)c3ccccc3)C(O)C(N(C)C)C2O)C(C)(OC)CC(C)CNC(C)C2N(CCCCn3cc(-c4cccc(N)c4)nn3)C(=O)OC12C (centres unmarked) [FSM-21797],MIC E. coli ATCC25922,[1],>32 µg/mL
same,MIC E. coli NDM-1,[1],>32 µg/mL
same,MIC P. aeruginosa ATCC27853,[2]; ATCC27853,>32 µg/mL
same,MIC S. pyogenes ATCC19615,[3],8 µg/mL
same,MIC S. pyogenes macrolide-resistant,[3]; macrolide-resistant,32 µg/mL
same,MIC A. baumannii ATCC19606,[4],>32 µg/mL
same,MIC A. baumannii imipenem-resistant,[4]; imipenem-resistant,>32 µg/mL
same,MIC E. faecalis ATCC29212,[5],32 µg/mL
same,MIC E. faecalis Vancomycin-resistant,[5]; Vancomycin-resistant,>32 µg/mL
same,MIC H. influenzae ATCC49247,[6],>32 µg/mL
same,"MIC H. influenzae erythro > 4, azithro 1","[6]; erythro > 4, azithro 1",>32 µg/mL
same,MIC S. pneumoniae ATCC49619,[7],32 µg/mL
same,MIC S. pneumoniae erm B + mef A genotype,[7]; erm B + mef A genotype,>32 µg/mL
same,"MIC S. pneumoniae erm B + tet(M, O) genotype","[7]; erm B + tet(M, O) genotype",16 µg/mL
same,MIC K. pneumoniae ATCC10031,[8],>32 µg/mL
same,MIC K. pneumoniae KPC-2,[8]; KPC-2,>32 µg/mL
same,MIC S. aureus ATCC29213,[9],>32 µg/mL
same,MIC S. aureus MRSA: USA100,[9],>32 µg/mL
same,MIC S. aureus MRSA: USA300,[9],>32 µg/mL
same,"MIC S. aureus USA600, GISA",[9],>32 µg/mL
same,MIC S. aureus erm A genotype,[9],>32 µg/mL
CCC1OC(=O)C(C)(F)C(=O)C(C)C(OC2OC(COC(=O)c3ccccc3)C(O)C(N(C)C)C2O)C(C)(OC)CC(C)CNC(C)C2N(CCCCn3cc(-c4cccc(N)c4)nn3)C(=O)OC12C (centres unmarked) [FSM-21798],MIC E. coli ATCC25922,[1],>32 µg/mL
same,MIC E. coli NDM-1,[1],>32 µg/mL
same,MIC P. aeruginosa ATCC27853,[2]; ATCC27853,>32 µg/mL
same,MIC S. pyogenes ATCC19615,[3],8 µg/mL
same,MIC S. pyogenes macrolide-resistant,[3]; macrolide-resistant,32 µg/mL
same,MIC A. baumannii ATCC19606,[4],>32 µg/mL
same,MIC A. baumannii imipenem-resistant,[4]; imipenem-resistant,>32 µg/mL
same,MIC E. faecalis ATCC29212,[5],32 µg/mL
same,MIC E. faecalis Vancomycin-resistant,[5]; Vancomycin-resistant,>32 µg/mL
same,MIC H. influenzae ATCC49247,[6],>32 µg/mL
same,"MIC H. influenzae erythro > 4, azithro 1","[6]; erythro > 4, azithro 1",>32 µg/mL
same,MIC S. pneumoniae ATCC49619,[7],>32 µg/mL
same,MIC S. pneumoniae erm B + mef A genotype,[7]; erm B + mef A genotype,>32 µg/mL
same,"MIC S. pneumoniae erm B + tet(M, O) genotype","[7]; erm B + tet(M, O) genotype",>32 µg/mL
same,MIC K. pneumoniae ATCC10031,[8],>32 µg/mL
same,MIC K. pneumoniae KPC-2,[8]; KPC-2,>32 µg/mL
same,MIC S. aureus ATCC29213,[9],>32 µg/mL
same,MIC S. aureus MRSA: USA100,[9],>32 µg/mL
same,MIC S. aureus MRSA: USA300,[9],>32 µg/mL
same,"MIC S. aureus USA600, GISA",[9],>32 µg/mL
same,MIC S. aureus erm A genotype,[9],>32 µg/mL
